pIC50: −log10 of the molar value.
Legend:
[1] = system: HL60 (leukemia) cancer cells; experiment: In vitro cytotoxic activity (MTT) assay, HL60; format: cell-based; conditions: Homo sapiens, HL-60, exposed for 96 hours, read-out: IC50, inhibition of cell proliferation, HL60 (leukemia)
Experimental: (§1) Compounds 1-12 were screened for their in vitro cytotoxic activity utilizing a 3-(4,5-dimethyl-thiazol-2-yl)-2,5-diphenyltetrazolium bromide (MTT) assay against selected cancer human cell lines consisting of PC3 (prostate), HCT116 (colon), A375 (melanoma), H1299 (lung), MIAPaCa-2 (pancreas), HL60 (leukemia), MCF7 (breast), MDA-MB-231 (breast) (T. Mosmann, J. Immunol. Meth., 1983, 65, 55-63). The cells were cultured at 37° C. in RMPI1640 medium supplemented with 10% fetal bovine serum, 50 IU/mL penicillin, and 50 μg/mL streptomycin in a 5% CO2 incubator. All cells were sub-cultured 3 times/week by trypsinisation. Viable cells were seeded and allowed to adhere for 12 h before a test drug was added in 96-well plates at an initial density of 1.0×10^5 cells/mL. Tumour cell lines were separately exposed to various concentrations of the tested compounds followed by incubation at a temperature of 37° C. during 96 h inside a medium of fresh RMPI 1640. Cells were subsequently incubated at 37° C. using MTT at 0.5 mg/mL during 4 h. After removal of supernatant, formazan crystals were dissolved in isopropanol and the optical density was measured at 570 nm. CX-4945 was used as a positive control.

[2] = system: MIAPaCa-2 (pancreas) cancer cells; experiment: In vitro cytotoxic activity (MTT) assay, MIAPaCa-2; format: cell-based; conditions: Homo sapiens, MIA PaCa-2; MIAPaCa-2 cells, exposed for 96 hours; read-out: IC50, inhibition of cell proliferation, MIAPaCa-2 (pancreas)
Experimental: as §1

[3] = system: MDA-MB-231 (breast) cancer cells; experiment: In vitro cytotoxic activity (MTT) assay, MDA-MB-231; format: cell-based; conditions: Homo sapiens; MDA-MB-231 cells, exposed for 96 hours; read-out: IC50, inhibition of cell proliferation, MDA-MB-231 (breast)
Experimental: as §1

[4] = system: H1299 (lung) cancer cells; experiment: In vitro cytotoxic activity (MTT) assay, H1299; format: cell-based; conditions: Homo sapiens, NCI-H1299, exposed for 96 hours, read-out: IC50, inhibition of cell proliferation, H1299 (lung)
Experimental: as §1

[5] = system: HCT116 (colon) cancer cells; experiment: In vitro cytotoxic activity (MTT) assay, HCT116; format: cell-based; conditions: Homo sapiens, HCT-116, exposed for 96 hours, read-out: IC50, inhibition of cell proliferation, HCT116 (colon)
Experimental: as §1

[6] = target: T1, recombinant human CK2 (RRββ-holoenzyme) (Homo sapiens, UniProt P68400); experiment: CK2 kinase assay (radiometric, [γ-33P]ATP); format: biochemical; conditions: final ATP 15 μM, 10 min at 30° C., eight concentrations; read-out: IC50, protein kinase CK2 activity
T1 construct: purchased Millipore
T1 sequence (P68400 whole entry): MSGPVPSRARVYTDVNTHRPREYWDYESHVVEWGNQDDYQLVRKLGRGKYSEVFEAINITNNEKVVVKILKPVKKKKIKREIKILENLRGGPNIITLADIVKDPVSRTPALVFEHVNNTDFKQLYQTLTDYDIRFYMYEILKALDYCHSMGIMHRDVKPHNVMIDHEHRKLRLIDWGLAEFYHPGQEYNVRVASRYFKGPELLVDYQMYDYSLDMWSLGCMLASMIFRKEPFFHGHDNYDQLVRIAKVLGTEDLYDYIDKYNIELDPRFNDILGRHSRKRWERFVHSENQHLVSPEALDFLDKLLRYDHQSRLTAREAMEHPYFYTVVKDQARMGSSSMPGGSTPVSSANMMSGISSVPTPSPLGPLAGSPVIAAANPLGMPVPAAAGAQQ
T1 sequence (P67870 whole entry partner): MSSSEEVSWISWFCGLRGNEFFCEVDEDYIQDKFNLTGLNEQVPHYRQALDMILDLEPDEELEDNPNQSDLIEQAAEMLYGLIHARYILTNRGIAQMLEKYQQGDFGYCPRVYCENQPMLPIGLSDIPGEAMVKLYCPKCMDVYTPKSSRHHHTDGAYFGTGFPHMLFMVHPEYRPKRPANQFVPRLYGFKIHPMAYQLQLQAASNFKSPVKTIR
Experimental: CK2 Kinase Assay was conducted using the protocol as described in Pierre F. et al; J. Med. Chem. 2011, 54, 635-654. The tested compounds in aqueous solution were added at a volume of 10 μL to a reaction mixture comprising 10 μL of assay dilution buffer (ADB; 20 mM MOPS, pH 7.2, 25 mM β-glycerol phosphate, 5 mM EGTA, 1 mM sodium orthovanadate, and 1 mM dithiothreitol), 10 μL of substrate peptide (RRRDDDSDDD, dissolved in ADB at a concentration of 1 mM), 10 μL of recombinant human CK2 (RRββ-holoenzyme, 25 ng dissolved in ADB; Millipore). Reactions were initiated by the addition of 10 μL of ATP solution (90% 75 mMMgCl2, 75 μM ATP (final ATP concentration:15 μM) dissolved in ADB; 10% [γ-33P] ATP (stock 1 mCi/100 μL; 3000 Ci/mmol (Perkin-Elmer) and maintained for 10 min at 30° C. The reactions were quenched with 100 μL of 0.75% phosphoric acid and then transferred to and filtered through a phosphor cellulose filter plate (Millipore). After washing each well five times with 0.75% phosphoric acid, the plate was dried under vacuum for 5 min and, following the addition of 15 μL of scintillation fluid to each well, the residual radioactivity was measured using a Wallac luminescence counter. The IC50 values were derived from eight concentrations of test inhibitors.

[7] = system: A375 (melanoma) cancer cells; experiment: In vitro cytotoxic activity (MTT) assay, A375; format: cell-based; conditions: Homo sapiens, A-375, exposed for 96 hours, read-out: IC50, inhibition of cell proliferation, A375 (melanoma)
Experimental: as §1

[8] = system: PC3 (prostate) cancer cells; experiment: In vitro cytotoxic activity (MTT) assay, PC3; format: cell-based; conditions: Homo sapiens, PC-3, exposed for 96 hours, read-out: IC50, inhibition of cell proliferation, PC3 (prostate)
Experimental: as §1

[9] = system: MCF7 (breast) cancer cells; experiment: In vitro cytotoxic activity (MTT) assay, MCF7; format: cell-based; conditions: Homo sapiens, exposed for 96 hours, read-out: IC50, inhibition of cell proliferation, MCF7 (breast)
Experimental: as §1

O=C(O)c1ccc2c3cnccc3n(C(=O)c3cccc(Cl)c3)c2c1 [Compound (7), 5-(3-chlorobenzoyl)-5H-pyrido[4,3-b]indole-7-carboxylic acid]
pIC50 [1]: 5.77
pIC50 [2]: 5.64
pIC50 [3]: 5.44
pIC50 [4]: 5.96
pIC50 [5]: 5.80
pIC50 [6]: 7.44
pIC50 [7]: 5.36
pIC50 [8]: 6.05
pIC50 [9]: 5.28

From patent US11851430B1, “Pyrido[4,3-B]indole-7-carboxylic acid compounds as CK2 inhibitors” (KING FAISAL UNIVERSITY, priority 2023, dated 2023)
